# Measured values from US7592332B2, “Cytokine inhibitors” (Boehringer Ingelheim Pharmaceuticals, Inc., priority 2004, dated 2009).
# Counter-ions that a name gives are not always drawn.
row,Compound,melting point
1,"COc1cnc(C(C)(C)C)cc1NC(=O)c1cc2cccc(Oc3ccnc(N4CCN(C)CC4)n3)c2n1C (as salt: salt) [Example 2, 1-methyl-7-[2-(4-methyl-piperazin-1-yl)-pyrimidin-4-yloxy]-1H-indole-2-carboxylic acid (2-tert-butyl-5-methoxy-pyridin-4-yl)-amide]",72 to 74 °C (dec.)
2,"Cn1c(C(=O)Nc2cc(C(C)(C)C)c[nH]c2=O)cc2cccc(Oc3ccncc3)c21 [Example 5, 1-methyl-7-(pyridine-4-yloxy)-1H-indole-2-carboxylic acid (5-tert-butyl-2-oxo-1,2-dihydropyridin-3-yl)-amide]",236 to 238 °C (dec.)
3,"Cn1cc(C(C)(C)C)cc(NC(=O)c2cc3cccc(Oc4ccncc4)c3n2C)c1=O [Example 6, 1-methyl-7-(pyridine-4-yloxy)-1H-indole-2-carboxylic acid (5-tert-butyl-1-methyl-2-oxo-1,2-dihydropyridin-3-yl)-amide]",74 to 76 °C (dec.)
4,"Cc1ncc(C(C)(C)C)cc1NC(=O)c1cc2cccc(Oc3ccncc3)c2n1C [Example 7, 1-methyl-7-(pyridine-4-yloxy)-1H-indole-2-carboxylic acid (5-tert-butyl-2-methyl-pyridin-3-yl)-amide]",52 to 56 °C (dec.)

# Results, then the compound that gave them:
row,melting point,Compound
1,88 to 92 °C (dec.),"Cn1c(C(=O)Nc2cc(C(C)(C)C)ccc2[S+](C)[O-])cc2cccc(Oc3ccncc3)c21 (stereo not drawn) [Example 3, 1-methyl-7-(pyridine-4-yloxy)-1H-indole-2-carboxylic acid (5-tert-butyl-2-methanesulfinyl-phenyl)-amide]"
2,158 to 159 °C (dec.),"Cn1c(C(=O)Nc2cc(C(C)(C)C)ccc2S(C)(=O)=O)cc2cccc(Oc3ccncc3)c21 [Example 4, 1-methyl-7-(pyridine-4-yloxy)-1H-indole-2-carboxylic acid (5-tert-butyl-2-methanesulfonyl-phenyl)-amide]"
